Test results reported in US20100227841A1, “Patient populations and treatment methods” (Harbor BioSciencs, Inc., priority 2008, published 2010).

Tests used:
[1] = system: Zucker Diabetic Fatty (ZDF) rats; assay: Zucker Diabetic Fatty (ZDF) rat study (glucose, clamp, adipose histology, lipid profiles); format: in vivo
Method: The study was staggered into 6 cohorts conducted on different days. Forty-two male Zucker Diabetic Fatty (ZDF) rats and six Zucker Fatty rats at 7-week of age were obtained from Charles River laboratories (Wilmington, Mass.). The rats were housed individually in polycarbonate cages in a temperature-controlled room on a 12 h: 12 h light: dark cycle with the lights on at 0600 h. Rats were fed ad libitum except during the experiments. After one week of acclimation to environmental conditions, the ZDF rats began daily oral treatment for 32 to 35 days with vehicle (n=18), 100 mg/kg/day 17α-ethynylandrost-5-ene-3β,7β,17β-triol (n=15), or 10 mg/kg/day rosiglitazone (n=9).
Glucose levels were measured using a One-Touch glucometer (Lifescan). Extra serum samples were collected for free fatty acid (FFA), free glycerol, pyruvate, and lactate measurements. Glucose, insulin and pyruvate tolerance tests were performed on 6 hr fasted rats. For GTT, animals were orally gavaged with glucose (1 g/kg), whereas for ITT, 0.35 units/kg insulin (Novolin R, Novo-Nordisk) was injected intraperitoneally. Blood samples were taken at basal and 15, 30, 60, 90 and 120 min after injection. For the pyruvate tolerance test (PTT), 1 g/kg of pyruvate was used.
Dual jugular venous cannulae and one carotid arterial cannula were implanted in rats. The rats were allowed to recover for 4 to 5 days before clamp procedure. The hyperinsulinemic euglycemic clamp experiments began with a priming injection (7.5 μCi/0.2 ml) and constant infusion (0.25 μCi/min) of D-[3-^3H] glucose (Du Pont-NEN, Boston, Mass.). After 60 min of tracer equilibration and basal sampling at t=−10 and 0 min, glucose (50% dextrose, variable infusion; Abbott) and tracer (0.25 μCi/min) plus insulin ([…]) were infused into the jugular vein. Small blood samples were drawn at 10-min intervals and immediately analyzed for glucose to maintain the integrity of the glucose clamp throughout the duration of the experiment. Blood samples were taken at t=−60 (start of experiment), −10, 0 (basal), 110, and 120 (end of experiment) min to determine glucose-specific activity and insulin, and free fatty acid (FFA). To ensure accuracy, basal and terminal sampling was performed twice at 10-min intervals. The achievement of steady-state conditions (100 mg/dl±5 mg/dl) was confirmed at the end of the clamp by measuring blood glucose every 10 min and ensuring that steady state for glucose infusion and plasma glucose levels were maintained for a minimum of 20 min. All blood samples were immediately centrifuged, and plasma was stored at −80° C. for subsequent analysis.
Following a 3-day recovery after clamp, rats were fasted 6 hours and euthanized. Tissues were harvested at basal state or acute insulin-stimulated state (5 U/kg). Insulin levels were analyzed by ELISA assay (Alpco Diagnostics). FFA levels were measured by enzymatic assay (Wako Diagnostics). Glycerol levels were measured using an assay kit from Sigma. Lactate and pyruvate assay kits were obtained from Biovision. TNFα and IL-1βwere measured by ELISA assays (Biosource).
Immunohistochemistry and quantification of crown-like structure (CLS) were done. These studies were conducted using paraffin-embedded adipose (epididymal) tissue sections from the rats incubated with MAC-2 antibody (Abcam) at a 1:100 dilution overnight at 4° C. Subsequently, biotinylated anti-rat secondary antibody (BD Bioscience) was used at 1:100 dilution, followed by 1:500 HRP-Streptavidin (Jackson ImmunoResearch) and development in substrate chromogen. Slides were counterstained with Mayer's and mounted with Vectashield mounting media with DAPI (Vector). Both bright field (MAC-2) and fluorescent photographs (DAPI) were taken of 3 representative fields per slide in a blinded fashion using a fluorescent microscope (10× objective).
Gene expression analyses used total RNA extracted from tissue with Purelink total RNA purification system (Invitrogen) following the manufacturer's protocol.

[2] = system: toll-like receptor 4 (TLR4) signaling; assay: LPS-induced proinflammatory signaling in macrophages (Western blot, qNPA array); format: cell-based, mouse
Method: Methods. LPS and recombinant TNFα were obtained from Sigma. Anti-SREBP2 was obtained from Abcam (Cambridge, Mass.). Other primary antibodies were purchased from Cell Signaling Technology (Danvers, Mass.) unless otherwise indicated. Murine primary macrophages were elicited by intraperitoneal injection of thioglycollate (3 mL/mouse) in C57BL/6J mice. Macrophages were obtained from intraperitoneal lavage and washed twice. Cells were cultured in RPMI supplemented with 10% fetal bovine serum (FBS) for 3 days and then starved in RPMI supplemented with 0.5% FBS for overnight before the treatment. RAW 264.7 cells and 3T3-L1 cells were cultured essentially as described elsewhere (T. Yoshizaki, et al. Molecular and Cellular Biology, 29:1363-1374, 2009).
Gene expression analyses used total RNA extracted from tissue with Purelink total RNA purification system (Invitrogen) following the manufacturer's protocol. Total RNA (2 μg) was reverse-transcribed using iScript cDNA Synthesis Kit (Bio-Rad Laboratories, Hercules, Calif.). Primer sequences used in the PCR reactions were chosen based on the sequences available in GenBank. Primer sequences are available upon request. PCR was carried out using iTaq SYBR Green supermix (Bio-Rad Laboratories, Hercules, Calif.) on an MJ Research Chromo4 Real Time PCR system (Bio-Rad Laboratories BV, Hercules, Calif.). […] For Quantitative Nuclease Protection Assay (qNPA), cells were lysed in lysis buffer after various treatments. The qNPA ArrayPlate assays were performed by High Throughput Genomics, Inc.
For Western blots, cells were serum starved and pretreated with DMSO or 17α-ethynylandrost-5-ene-3β,7β,17β-triol (100 nM) for overnight before LPS (100 ng/ml) or TNFα (10 ng/ml) stimulation for the indicated times, and then were lysed in radioimmunoprecipitation buffer containing protease inhibitor cocktail (Roche) and phosphatase inhibitor cocktail (Sigma). Total cell lysates were separated by 10% SDS-PAGE. The blots were incubated first with blocking buffer (Tris-buffered saline containing 0.05% Tween 20 and 5.5% nonfat milk) followed by primary antibodies in blocking buffer or Tris-buffered saline containing 2% BSA. The bound antibodies were detected by horseradish peroxidase-conjugated secondary antibodies (1:4000, v/v) in blocking buffer and visualized by enhanced chemiluminescence.

[3] = ZDF rats, 100 mg/kg/d, throughout the study, one week sufficient
[4] = euglycemic-hyperinsulinemic clamp, triol 100 mg/kg/d, rosiglitazone 10 mg/kg/d (more robust)
[5] = pretreatment 100 nM overnight, LPS 100 ng/ml, p<0.05

`C#C[C@]1(O)CC[C@H]2[C@@H]3[C@@H](O)C=C4C[C@@H](O)CC[C@]4(C)[C@H]3CC[C@@]21C` [17α-ethynylandrost-5-ene-3β,7β,17β-triol] was tested, and the “intracellular triacylglycerol (TAG) content in livers” value ([1]; ZDF rats) was “marked decrease”, the “decrease in serum cholesteryl esters” value ([1]; ZDF rats, 100 mg/kg/d) was 59% and the “decrease in serum total cholesterol levels” value ([1]; ZDF rats, 100 mg/kg/d) was 25%. The “gross pathology of the kidneys due to diabetes” value ([1]; ZDF rats, 100 mg/kg/d) was “greatly ameliorated”, the “level of free cholesterol in epididymal white adipose tissue (WAT)” value ([1]; ZDF rats, 100 mg/kg/d) was “reduced” and the “other major lipid classes in WAT” value ([1]; ZDF rats, 100 mg/kg/d) was “not significantly altered”. For the same compound, the “reduction of hepatic cholesteryl ester levels” value ([1]; ZDF rats, 100 mg/kg/d) was 73%, the “reduction of total cholesterol content in the liver” value ([1]; ZDF rats, 100 mg/kg/d) was 15% and the “serum free cholesterol levels” value ([1]; ZDF rats, 100 mg/kg/d) was “increase”. For the same compound, the plasma insulin levels ([1]; ZDF rats, 100 mg/kg/d, one week of treatment) was “normalize”, the fasting glucose levels [1, 3] was “completely normalized” and the fed glucose levels [1, 3] was “completely normalized”. The “adipose tissue macrophage (ATM) content, Mac-2 staining” value ([1]; ZDF rats, epididymal adipose tissue sections) was “marked reduction”, the “HMG CoA reductase expression” value ([1]; ZDF rats, gene expression) was “increased” and the “low density lipoprotein receptor (LDLR) expression” value ([1]; ZDF rats, gene expression) was “increased”. The “MCP-1 in adipose tissue” value ([1]; ZDF rats, p<0.05) was “decrease”, the “TNFα in adipose tissue” value ([1]; ZDF rats, p<0.05) was “decrease” and the “Basal rates of hepatic glucose production (HGP)” value ([1]; clamp, triol 100 mg/kg/d, rosiglitazone 10 mg/kg/d) was “equally reduced”. The glucose infusion rate [1, 4] was “increase”, the insulin-stimulated glucose disposal [1, 4] was “increase” and the “LPS-induced activation of ERK” value [2, 5] was “partially, but significantly, blocked”. For the same compound, the “LPS-induced activation of IKK” value [2, 5] was “partially, but significantly, blocked”, the “LPS-induced activation of JNK” value [2, 5] was “partially, but significantly, blocked” and the “LPS-induced activation of p38” value [2, 5] was “partially, but significantly, blocked”. For the same compound, the “IκB phosphorylation and degradation” value ([2]; pretreatment 100 nM, LPS) was “not influenced”, the NFκB phosphorylation ([2]; pretreatment 100 nM, LPS) was “reduced” and the “LPS-induced transcription of Cxcl1” value ([2]; qNPA array) was “significantly reduced”. The “LPS-induced transcription of Cxcl10” value ([2]; qNPA array) was “significantly reduced”, the “LPS-induced transcription of IL-1β” value ([2]; qNPA array) was “significantly reduced” and the “LPS-induced transcription of IL-6” value ([2]; qNPA array) was “significantly reduced”. For the same compound, the “LPS-induced transcription of IL-12” value ([2]; qNPA array) was “significantly reduced”, the “LPS-induced transcription of Nos2” value ([2]; qNPA array) was “significantly reduced” and the “LPS-induced transcription of TNFα” value ([2]; qNPA array) was “significantly reduced”.
